Data published in US12631620B2, “Methods of generating organoids for high throughput screening of drugs” (Yissum Research Development Company of the Hebrew …, priority 2019, dated 2026).
“And” between values parts separate entries of the source, which are not always exact repeats. Equal values may be shown once.

Columns and labels:
HepG2/C3A organoids = test: Neutral lipid and phospholipid staining of HepG2/C3A organoids on chip; type: cell-based, human; details: p<0.001, n=9
E6/E7^LOW hepatocytes = system: E6/E7^LOW hepatocytes
Description: According to some embodiments of the invention there is a sensor-integrated liver on chip array in which oxygen is monitored using two-frequency phase modulation of tissue-embedded phosphorescent microprobes, while glucose, lactate and temperature are measured in real time using microfluidic electrochemical sensors. Such a microphysiological platform permits the calculation of dynamic changes in metabolic fluxes around central carbon metabolism, producing a unique metabolic fingerprint of the liver's response to stimuli.

[1] = patients on therapy; cited from earlier work
[2] = system: E6/E7^LOW human hepatocytes; test: Steatosis and phospholipidosis, HCS LipidTOX detection kit, hepatocyte cultures; type: cell-based
Description: Quantification of Apoptotic index was performed using DeadEnd™ fluorometric TUNEL System (Promega) according to manufacturer directions. Briefly, cells were treated with TC20 concentrations of compounds dissolved in culture medium for 24 hours, and subsequently fixed in 4% Paraformaldehyde (PFA). Cells were then permeabilized and exposed to fluorescein-12-dUTP and terminal deoxynucleotidyl transferase (TdT). The reaction was subsequently stopped and the cells counterstained with 1 μg/mL Hoechst 33258. Apoptotic cells were positive for green fluorescence in the nucleus. Percentage apoptosis was defined as the number of TUNEL positive nuclei normalized to Hoechst 33258 positive nuclei. Quantification of Steatosis was performed using HCS LipidTOX™ Phospholipidosis and Steatosis Detection Kit (ThermoFisher). Briefly, differentiated cells were incubated with different concentrations of compounds dissolved in culture medium and 1× Phospholipidosis Detection Reagent for 48 hours, subsequently fixed in 4% PFA. Cells were then stained with 1× LipidTOX™ for 20 minutes and counterstained with 1 μg/mL Hoechst 33258. Staining intensity was normalized to number of Hoechst 33258 positive nuclei. Quantification of Bile Secretion was performed using 5(6)-carboxy-2′,7′-dichlorofluorescein diacetate (CDFDA) staining. Briefly, differentiated cells were incubated with different concentrations of compounds dissolved in culture medium for 24 hours. Cells were then treated with 10 μg/mL CDFDA and 1 μg/mL Hoechst 33342 for 30 minutes. Incubation medium was removed and cultures washed with ice-cold PBS containing calcium and magnesium. Staining intensity was normalized to number of Hoechst 33342 positive nuclei. Analysis excluded Intracellular CDFDA staining based on intensity and phase images. All quantifications were made in comparison to cells treated with melatonin as negative control.
Quantification of Apoptotic index was performed using DeadEnd™ fluorometric TUNEL System (Promega) according to manufacturer directions. Briefly, cells were treated with TC20 concentrations of compounds dissolved in culture medium for 24 hours, and subsequently fixed in 4% Paraformaldehyde (PFA). Cell were then permeabilized and exposed to fluorescein-12-dUTP and terminal deoxynucleotidyl transferase (TdT). The reaction was subsequently stopped and the cells counterstained with 1 μg/mL Hoechst 33258. Apoptotic cells were positive for green fluorescence in the nucleus. […] Quantification of Steatosis was performed using HCS LipidTOX™ Phospholipidosis and Steatosis Detection Kit (ThermoFisher). […] Quantification of Bile Secretion was performed using 5(6)-carboxy-2′,7′-dichlorofluorescein diacetate (CDFDA) staining. […] All quantifications were made in comparison to cells treated with melatonin as negative control.

[3] = system: E6/E7^LOW human hepatocytes; test: Bile secretion, CDFDA staining; type: cell-based; details: p<0.05, n=4
Description: Quantification of Apoptotic index was performed using DeadEnd™ fluorometric TUNEL System (Promega) according to manufacturer directions. Briefly, cells were treated with TC20 concentrations of compounds dissolved in culture medium for 24 hours, and subsequently fixed in 4% Paraformaldehyde (PFA). Cells were then permeabilized and exposed to fluorescein-12-dUTP and terminal deoxynucleotidyl transferase (TdT). The reaction was subsequently stopped and the cells counterstained with 1 μg/mL Hoechst 33258. Apoptotic cells were positive for green fluorescence in the nucleus. Percentage apoptosis was defined as the number of TUNEL positive nuclei normalized to Hoechst 33258 positive nuclei. Quantification of Steatosis was performed using HCS LipidTOX™ Phospholipidosis and Steatosis Detection Kit (ThermoFisher). […] Quantification of Bile Secretion was performed using 5(6)-carboxy-2′,7′-dichlorofluorescein diacetate (CDFDA) staining. […] All quantifications were made in comparison to cells treated with melatonin as negative control.
Quantification of Apoptotic index was performed using DeadEnd™ fluorometric TUNEL System (Promega) according to manufacturer directions. […] Apoptotic cells were positive for green fluorescence in the nucleus. […] Quantification of Steatosis was performed using HCS LipidTOX™ Phospholipidosis and Steatosis Detection Kit (ThermoFisher). […]

[4] = system: E6/E7^LOW human hepatocytes; test: E6/E7LOW human hepatocyte viability assessment (LIVE/DEAD Cytotoxicity kit); type: cell-based; details: 24 hours
Description: E6/E7^LOW human hepatocyte were cultured with different concentrations of compounds dissolved in culture medium for 24 hours. Cell viability was subsequently determined using LIVE/DEAD Cytotoxicity kit (Molecular Probes, USA) according to manufacturer directions. Briefly, cultures were incubated for 30 minutes with 2 μM calcein AM and 3 μM ethidium homodimer-1. Live cells were positive for green fluorescence due to hydrolysis of the acetoxymethyl ester group by intracellular esterases. Dead cells were positive for red fluorescence due to ethidium homodimer-1 binding intracellular DNA, possible in […]. Cellular viability was expressed as live over dead ratio and normalized based on negative (DMSO/DDW/EtOH) and positive (0.1% Saponin) controls. Fluorescence micrographs were analyzed for total fluorescence using ImageJ for 12 repeats for each sample. TC50 and TC20 concentrations were calculated using MATLAB® Curve Fitting Tool. Results were fitted to a sigmoidal curve (Prentice, 1976; Wenner et al., 2011). Error bars indicate ±SE.

Cc1cn([C@H]2C=C[C@@H](CO)O2)c(=O)[nH]c1=O [Stavudine]
increase in the amount of intracellular lipids (HepG2/C3A organoids): 3 fold
ATP production (E6/E7^LOW hepatocytes): relatively unchanged
direct mitochondrial damage (E6/E7^LOW hepatocytes): no indication of direct mitochondrial damage
metabolic fluxes (lipogenesis, glycolysis) (E6/E7^LOW hepatocytes): transient increase in lipogenesis followed by global suppression of both glycolysis and lipogenesis
increase in lipogenesis (E6/E7^LOW hepatocytes; flux balance analysis, below threshold of cellular damage, Valproate sustained, Stavudine transient): 5%
time to onset of slow progressive damage post-exposure (E6/E7^LOW hepatocytes; human): 15 to 20 h
patients with elevated liver enzymes [1]: 30%
phospholipidosis [2]: not
neutral lipids ([2]; p<0.001, n=4): strong and significant increase
bile secretion [3]: mild inhibition
TC50 [4]: 800 µM and 800 ± 60 µM
